Assay results published in PubChem BioAssay (NCI).
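Step 1: Grow cells in 96-well plates. Step 2: Expose to compound for 48 hours at 5 concentrations. Step 3: Interpolate endpoints linearly; if unreached, use highest concentration. TGI: total growth inhibition.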

What was measured:
Experiment in all cases: NCI-60 cell line screen, 48 h
786-0 renal = system: 786-0 renal
A498 renal = system: A498 renal
A549 NSCLC = system: A549 NSCLC
ACHN renal = system: ACHN renal
CCRF-CEM leukemia = system: CCRF-CEM leukemia
DLD-1 colon = system: DLD-1 colon
DMS 114 small cell lung = system: DMS 114 small cell lung
DMS 273 small cell lung = system: DMS 273 small cell lung
EKVX NSCLC = system: EKVX NSCLC
HCC-2998 colon = system: HCC-2998 colon
HCT-15 colon = system: HCT-15 colon
HL-60(TB) leukemia = system: HL-60(TB) leukemia
HOP-18 NSCLC = system: HOP-18 NSCLC
HT29 colon = system: HT29 colon
IGROV1 ovarian = system: IGROV1 ovarian
K-562 leukemia = system: K-562 leukemia
KM12 colon = system: KM12 colon
LOX IMVI melanoma = system: LOX IMVI melanoma
LXFL 529 NSCLC = system: LXFL 529 NSCLC
M14 melanoma = system: M14 melanoma
M19-MEL melanoma = system: M19-MEL melanoma
MALME-3M melanoma = system: MALME-3M melanoma
MOLT-4 leukemia = system: MOLT-4 leukemia
NCI-H226 lung = system: NCI-H226 lung
NCI-H23 lung = system: NCI-H23 lung
NCI-H460 lung = system: NCI-H460 lung
OVCAR-3 ovarian = system: OVCAR-3 ovarian
OVCAR-4 ovarian = system: OVCAR-4 ovarian
OVCAR-5 ovarian = system: OVCAR-5 ovarian
OVCAR-8 ovarian = system: OVCAR-8 ovarian
RPMI-8226 leukemia = system: RPMI-8226 leukemia
RXF 393 renal = system: RXF 393 renal
SF-268 CNS = system: SF-268 CNS
SF-295 CNS = system: SF-295 CNS
SF-539 CNS = system: SF-539 CNS
SK-MEL-28 melanoma = system: SK-MEL-28 melanoma
SK-MEL-5 melanoma = system: SK-MEL-5 melanoma
SK-OV-3 ovarian = system: SK-OV-3 ovarian
SN12C renal = system: SN12C renal
SNB-19 CNS = system: SNB-19 CNS
SNB-75 CNS = system: SNB-75 CNS
SNB-78 CNS = system: SNB-78 CNS
SR leukemia = system: SR leukemia
SW-620 colon = system: SW-620 colon
TK-10 renal = system: TK-10 renal
U251 CNS = system: U251 CNS
UACC-62 melanoma = system: UACC-62 melanoma
UO-31 renal = system: UO-31 renal
BT-549 breast = system: BT-549 breast
CAKI-1 renal = system: CAKI-1 renal
COLO 205 colon = system: COLO 205 colon
DU-145 prostate = system: DU-145 prostate
HOP-62 NSCLC = system: HOP-62 NSCLC
HOP-92 NSCLC = system: HOP-92 NSCLC
HS 578T breast = system: HS 578T breast
MCF7 breast = system: MCF7 breast
MDA-MB-231 breast = system: MDA-MB-231 breast
MDA-MB-435 = system: MDA-MB-435
MDA-N = system: MDA-N
NCI-H522 lung = system: NCI-H522 lung
NCI/ADR-RES ovarian = system: NCI/ADR-RES ovarian
PC-3 prostate = system: PC-3 prostate
SK-MEL-2 melanoma = system: SK-MEL-2 melanoma
T-47D breast = system: T-47D breast
UACC-257 melanoma = system: UACC-257 melanoma

For `C=CC[P@]1(=O)O[C@H](c2ccccc2)[C@H](C)N1C`, the TGI (786-0 renal) was over 100 µM, the TGI (A498 renal) was over 100 µM and the TGI (A549 NSCLC) was over 100 µM. The TGI (ACHN renal) was over 100 µM, the TGI (CCRF-CEM leukemia) was over 100 µM and the TGI (DLD-1 colon) was over 100 µM. For the same compound, the TGI (DMS 114 small cell lung) was over 100 µM, the TGI (DMS 273 small cell lung) was over 100 µM and the TGI (EKVX NSCLC) was over 100 µM. For the same compound, the TGI (HCC-2998 colon) was over 100 µM, the TGI (HCT-15 colon) was over 100 µM and the TGI (HL-60(TB) leukemia) was over 100 µM. It also gave a TGI (HOP-18 NSCLC) of over 100 µM, a TGI (HT29 colon) of over 100 µM and a TGI (IGROV1 ovarian) of over 100 µM. For the same compound, the TGI (K-562 leukemia) was over 100 µM, the TGI (KM12 colon) was over 100 µM and the TGI (LOX IMVI melanoma) was over 100 µM. It also gave a TGI (LXFL 529 NSCLC) of over 100 µM, a TGI (M14 melanoma) of over 100 µM and a TGI (M19-MEL melanoma) of over 100 µM. The TGI (MALME-3M melanoma) was over 100 µM, the TGI (MOLT-4 leukemia) was over 100 µM and the TGI (NCI-H226 lung) was over 100 µM. The TGI (NCI-H23 lung) was over 100 µM, the TGI (NCI-H460 lung) was over 100 µM and the TGI (OVCAR-3 ovarian) was over 100 µM. The TGI (OVCAR-4 ovarian) was over 100 µM, the TGI (OVCAR-5 ovarian) was over 100 µM and the TGI (OVCAR-8 ovarian) was over 100 µM. It also gave a TGI (RPMI-8226 leukemia) of over 100 µM, a TGI (RXF 393 renal) of over 100 µM and a TGI (SF-268 CNS) of over 100 µM. It also gave a TGI (SF-295 CNS) of over 100 µM, a TGI (SF-539 CNS) of over 100 µM and a TGI (SK-MEL-28 melanoma) of over 100 µM. For the same compound, the TGI (SK-MEL-5 melanoma) was over 100 µM, the TGI (SK-OV-3 ovarian) was over 100 µM and the TGI (SN12C renal) was over 100 µM. It also gave a TGI (SNB-19 CNS) of over 100 µM, a TGI (SNB-75 CNS) of over 100 µM and a TGI (SNB-78 CNS) of over 100 µM. For the same compound, the TGI (SR leukemia) was over 100 µM, the TGI (SW-620 colon) was over 100 µM and the TGI (TK-10 renal) was over 100 µM. For the same compound, the TGI (U251 CNS) was over 100 µM, the TGI (UACC-62 melanoma) was over 100 µM and the TGI (UO-31 renal) was over 100 µM.
For `COC(=O)c1csc([C@@H](OC(=O)[C@H](C)[C@H](CCCC(C)(Cl)Cl)OC(=O)c2csc([C@H](O)CO)n2)C(C)C)n1`, the TGI (786-0 renal) was 28.3 µM, the TGI (A498 renal) was 32.7 µM and the TGI (A549 NSCLC) was 32.1 µM. It also gave a TGI (ACHN renal) of 25.8 µM, a TGI (BT-549 breast) of 31 µM and a TGI (CAKI-1 renal) of 32.7 µM. The TGI (CCRF-CEM leukemia) was 34.8 µM, the TGI (COLO 205 colon) was 32.3 µM and the TGI (DU-145 prostate) was 24.8 µM. The TGI (EKVX NSCLC) was 33.4 µM, the TGI (HCC-2998 colon) was 22.2 µM and the TGI (HCT-15 colon) was 31 µM. It also gave a TGI (HL-60(TB) leukemia) of 35.1 µM, a TGI (HOP-62 NSCLC) of 33.6 µM and a TGI (HOP-92 NSCLC) of 23 µM. For the same compound, the TGI (HS 578T breast) was 6.65 µM, the TGI (HT29 colon) was 36.8 µM and the TGI (IGROV1 ovarian) was 24.1 µM. It also gave a TGI (K-562 leukemia) of 33.6 µM, a TGI (KM12 colon) of 29.4 µM and a TGI (LOX IMVI melanoma) of 23.5 µM. For the same compound, the TGI (M14 melanoma) was 31.6 µM, the TGI (MALME-3M melanoma) was 34.3 µM and the TGI (MCF7 breast) was 35 µM. For the same compound, the TGI (MDA-MB-231 breast) was 36.1 µM, the TGI (MDA-MB-435) was 26.8 µM and the TGI (MDA-N) was 21.3 µM. It also gave a TGI (MOLT-4 leukemia) of 32.2 µM, a TGI (NCI-H226 lung) of 39.7 µM and a TGI (NCI-H23 lung) of 30.9 µM. For the same compound, the TGI (NCI-H460 lung) was 23.2 µM, the TGI (NCI-H522 lung) was 32.9 µM and the TGI (NCI/ADR-RES ovarian) was 45.4 µM. It also gave a TGI (OVCAR-3 ovarian) of 30.8 µM, a TGI (OVCAR-4 ovarian) of 24.5 µM and a TGI (OVCAR-5 ovarian) of 29 µM. For the same compound, the TGI (OVCAR-8 ovarian) was 22.4 µM, the TGI (PC-3 prostate) was 26.7 µM and the TGI (RPMI-8226 leukemia) was 34.1 µM. It also gave a TGI (RXF 393 renal) of 4.53 µM, a TGI (SF-268 CNS) of 34.8 µM and a TGI (SF-295 CNS) of 29.1 µM. For the same compound, the TGI (SF-539 CNS) was 8.62 µM, the TGI (SK-MEL-2 melanoma) was 28.9 µM and the TGI (SK-MEL-28 melanoma) was 24.2 µM. For the same compound, the TGI (SK-MEL-5 melanoma) was 31.8 µM, the TGI (SK-OV-3 ovarian) was 29.7 µM and the TGI (SN12C renal) was 4.41 µM. The TGI (SNB-19 CNS) was 26.8 µM, the TGI (SNB-75 CNS) was 11 µM and the TGI (SR leukemia) was 32.2 µM. The TGI (SW-620 colon) was 32.6 µM, the TGI (T-47D breast) was 36.5 µM and the TGI (TK-10 renal) was 24.9 µM. For the same compound, the TGI (U251 CNS) was 32 µM, the TGI (UACC-257 melanoma) was 23.1 µM and the TGI (UACC-62 melanoma) was 24.3 µM. The TGI (UO-31 renal) was 19.9 µM.
